Counter-ions that a name gives are not always drawn.
System: ovarian carcinoma cell line (SKOV3)
Experiment: Serum starved, EGF stimulated proliferation assay on ovarian carcinoma SKOV3 cells (MTT)
Type: cell-based
Settings: Homo sapiens, SK-OV-3, serum free, 72 hours EGF 100 ng/ml, b231 calls the values pIC50, read-out: SKOV3 cell (C3): IC50 (converted)
Experimental: The ovarian carcinoma cell line (SKOV3) was used in an epidermal growth factor stimulated cell proliferation assay, to assess the inhibitory effect of the compounds on EGF in whole cells. In a first step the SKOV3 cells were incubated for 24 hours in the presence of 10% FCS serum. In the second step the cells were incubated with the compounds to be tested in a serum free condition (37° C. and 5% (v/v) CO2) and subsequently stimulated for 72 hours with EGF at a final concentration of 100 ng/ml. The effect of the compounds on the EGF stimulation was finally assessed in a standard MTT cell viability assay.

## COc1cc2ncc(C#N)c3c2cc1OCCCCCNCc1ccc(Br)cc1N3 [Compound 2, 4,6-ethanediylidenepyrido[4,3-b][6,1,12]benzoxadiazacyclopentadecine-1-carbonitrile, 17-bromo-8,9,10,11,12,13,14,19-octahydro-20-methoxy-, monohydrochloride]
  IC50: 158 nM

— patent publication US8778920B2, “3-cyano-quinoline derivatives with antiproliferative activity” (Janssen Pharmaceutica NV, priority 2004, dated 2014)
